Converted amounts (≈) assume the structure as drawn. Where two headings read alike, the source gives them in different places.
How the values were obtained:
[1] = tested on: Mycobacterium tuberculosis H37Rv; assay: In vitro assay for antimicrobial susceptibility (microplate Alamar blue, MIC); type: cell-based; details: Mycobacterium tuberculosis, read-out: MIC (μg/mL) against H37Rv
[2] = tested on: mitochondrial protein synthesis (MPS) in H9C2 cells; assay: In vitro assay for MPS inhibition (COX-1 / SDH-A ELISA in H9C2 cells); type: cell-based, rat; details: Rattus norvegicus, read-out: IC50 (μM) MPS inhibition
[3] = M. tuberculosis H37Rv, 7H9 broth, Alamar blue
[4] = 120 h, H9C2 cells, 5 days incubation

## O=C1O[C@@H](Cn2ccnn2)CN1c1ccc(N2CCCSCCC2)c(F)c1 [OBD-001, (R)-5-((1H-1,2,3-triazol-1-yl)methyl)-3-(3-fluoro-4-(1,5-thiazocan-5-yl)phenyl)oxazolidin-2-one]
[1]; [3]
  MIC: 0.3 µg/mL (≈ 0.766 µM)
[2]; [4]
  IC50: 12 µM

## O=C(NC[C@H]1CN(c2cc(F)c(N3CC4(C3)C[S+]([O-])C4)c(F)c2)C(=O)O1)C1CC1 [OTB-252]
[1]; [3]
  MIC: 0.7 µg/mL (≈ 1.65 µM)
[2]; [4]
  IC50: 52 µM

## O=C(NC[C@H]1CN(c2cc(F)c(N3CC4(CSC4)C3)c(F)c2)C(=O)O1)C1CC1 [OTB-243, (S)—N-((3-(3,5-Difluoro-4-(2-thia-6-azaspiro[3.3]heptan-6-yl)phenyl)-2-oxo-oxazolidin-5-yl)methyl)cyclopropanecarboxamide]
[1]; [3]
  MIC: 0.03 µg/mL (≈ 0.0733 µM)
[2]; [4]
  IC50: 14 µM

## CS(=O)(=O)NC[C@H]1CN(c2cc(F)c(N3CC4(COC4)C3)c(F)c2)C(=O)O1 [OTB-232, (R)—N-((3-(3,5-Difluoro-4-(2-oxa-6-azaspiro[3.3]heptan-6-yl)phenyl)-2-oxo-oxazolidin-5-yl)methyl)methanesulfonamide]
[1]; [3]
  MIC: 1.5 to 4 µg/mL (≈ 3.72 to 9.92 µM)
[2]; [4]
  IC50: > 100 µM

## CS(=O)(=O)NC[C@H]1CN(c2cc(F)c(N3CC4(C3)C[S+]([O-])C4)c(F)c2)C(=O)O1 [OTB-516-2B]
[1]; [3]
  MIC: 3 µg/mL (≈ 6.89 µM)
[2]; [4]
  IC50: > 100 µM

## O=C1O[C@@H](Cn2nccn2)CN1c1ccc(N2CC3(C2)C[S+]([O-])C3)c(F)c1 [OTB-260-5B]
[1]; [3]
  MIC: > 32 µg/mL
[2]; [4]
  IC50: > 100 µM

## CC(=O)NC[C@H]1CN(c2ccc(N3CC4(COC4)C3)c(F)c2)C(=O)O1 [OTB-202, (S)—N-((3-(3-Fluoro-4-(2-oxa-6-azaspiro[3.3]heptan-6-yl)phenyl)-2-oxo-oxazolidin-5-yl)methyl)acetamide]
[1]; [3]
  MIC: 0.6 to 1.2 µg/mL (≈ 1.72 to 3.43 µM)
[2]; [4]
  IC50: 17 to 29 µM

## CC(=O)NC[C@H]1CN(c2cc(F)c(N3C4CCC3COC4)c(F)c2)C(=O)O1 [OBD-051]
[1]; H37RV
  MIC: 0.6 µg/mL (≈ 1.57 µM)
[2]; H9c2, 120 h
  IC50: 6 µM

## O=C1O[C@@H](Cn2ccnn2)CN1c1ccc(N2CC3(CSC3)C2)c(F)c1 [OTB-241, (R)-5-((1H-1,2,3-Triazol-1-yl)methyl)-3-(3-fluoro-4-(2-thia-6-azaspiro[3.3]heptan-6-yl)phenyl)oxazolidin-2-one]
[1]; [3]
  MIC: 0.116 µg/mL (≈ 0.309 µM)
[2]; [4]
  IC50: 19.8 µM

## O=C(NC[C@H]1CN(c2ccc(N3CCC[S+]([O-])CC3)c(F)c2)C(=O)O1)c1ccco1 (stereo partly drawn) [OTB-127, N-[[(5S)-3-(3-Fluoro-4-(1-oxido-1,4-thiazepan-4-yl)phenyl)-2-oxo-oxazolidin-5-yl]methyl]furan-2-carboxamide]
[1]; [3]
  MIC: 1.23 µg/mL (≈ 2.83 µM)
[2]; [4]
  IC50: 10.2 µM

## O=C(NC[C@H]1CN(c2cc(F)c(N3CC4(C3)C[S+]([O-])C4)c(F)c2)C(=O)O1)C1CCC1 [OTB-251]
[1]; [3]
  MIC: 0.9 µg/mL (≈ 2.05 µM)
[2]; [4]
  IC50: 24 µM

## NC[C@H]1CN(c2ccc(N3C4CCC3C[S+]([O-])C4)c(F)c2)C(=O)O1 (some centres unmarked) [OBD-085]
[1]; H37RV
  MIC: 1.1 µg/mL (≈ 3.11 µM)
[2]; H9c2, 120 h
  IC50: > 100 µM

## COC(=O)NC[C@H]1CN(c2cc(F)c(N3CC4(COC4)C3)c(F)c2)C(=O)O1 [OTB-231, Methyl (S)-((3-(3,5-difluoro-4-(2-oxa-6-azaspiro[3.3]heptan-6-yl)phenyl)-2-oxo-oxazolidin-5-yl)methyl)carbamate]
[1]; [3]
  MIC: 0.24 to 0.7 µg/mL (≈ 0.626 to 1.83 µM)
[2]; [4]
  IC50: 37 to 63 µM

## CCCC(=O)OC[C@H]1CN(c2ccc(N3CCCSCCC3)c(F)c2)C(=O)O1 [OTB-110, (R)-[3-[3-Fluoro-4-(1,5-thiazocan-5-yl)phenyl]-2-oxo-5-oxazolidinyl]methyl butyrate]
[1]; [3]
  MIC: 0.125 µg/mL (≈ 0.304 µM)
[2]; [4]
  IC50: > 100 µM

## O=C1O[C@@H](Cn2ccnn2)CN1c1cc(F)c(N2C3CCC2COC3)c(F)c1 [OBD-055, (5R)-5-((1H-1,2,3-triazol-1-yl)methyl)-3-(4-(3-oxa-8-aza-bicyclo[3.2.1]octan-8-yl)-3,5-difluorophenyl)oxazolidin-2-one]
[1]; H37RV
  MIC: 1.3 µg/mL (≈ 3.32 µM)
[2]; H9c2, 120 h
  IC50: 15 µM

## O=C1O[C@@H](CO)CN1c1cc(F)c(N2CC3(COC3)C2)c(F)c1 [OTB-229, (R)-3-(3,5-Difluoro-4-(2-oxa-6-azaspiro[3.3]heptan-6-yl)phenyl)-5-(hydroxymethyl)oxazolidin-2-one]
[1]; [3]
  MIC: 1.9 to 7.4 µg/mL (≈ 5.82 to 22.7 µM)
[2]; [4]
  IC50: > 100 µM

## CCCC(=O)OC[C@H]1CN(c2ccc(N3CCC[S+]([O-])CC3)c(F)c2)C(=O)O1 (stereo partly drawn) [OTB-126, [(5R)-3-[3-Fluoro-4-(1-oxido-1,4-thiazepan-4-yl)phenyl)-2-oxo-oxazolidin-5-yl]methyl butyrate]
[1]; [3]
  MIC: 0.847 µg/mL (≈ 2.05 µM)
[2]; [4]
  IC50: 35.6 µM

## O=C(NC[C@H]1CN(c2ccc(N3CC4(COC4)C3)c(F)c2)C(=O)O1)C1CC1 [OTB-238, (S)—N-((3-(3-Fluoro-4-(2-oxa-6-azaspiro[3.3]heptan-6-yl)phenyl)-2-oxo-oxazolidin-5-yl)methyl)cyclopropanecarboxamide]
[1]; [3]
  MIC: 2 to 4 µg/mL (≈ 5.33 to 10.7 µM)
[2]; [4]
  IC50: 20 µM

## CCCC(=O)NC[C@H]1CN(c2ccc(N3C4CCC3CSC4)c(F)c2)C(=O)O1 [OBD-016, N—(((S)-3-(4-(3-thia-8-aza-bicyclo[3.2.1]octan-8-yl)-3-fluorophenyl)-2-oxooxazolidin-5-yl)methyl)butyramide]
[1]; H37RV
  MIC: 0.486 µg/mL (≈ 1.19 µM)
[2]; H9c2, 120 h
  IC50: 13 µM

## CC(=O)NC[C@H]1CN(c2ccc(N3[C@@H]4CC[C@H]3CSC4)c(F)c2)C(=O)O1 [OTB-502, N—(((S)-3-(4-((1R,5S)-3-Thia-8-azabicyclo[3.2.1]octan-8-yl)-3-fluorophenyl)-2-oxooxazolidin-5-yl)methyl)acetamide]
[1]; H37RV
  MIC: 0.246 µg/mL (≈ 0.648 µM)
[2]; H9c2, 120 h
  IC50: 13.6 µM

## O=C(NC[C@H]1CN(c2ccc(N3[C@@H]4CC[C@H]3CSC4)c(F)c2)C(=O)O1)C1CCC1 [OTB-507, N—(((S)-3-(4-((1R,5S)-3-Thia-8-aza-bicyclo[3.2.1]octan-8-yl)-3-fluorophenyl)-2-oxo-oxazolidin-5-yl)methyl)cyclobutanecarboxamide]
[1]; H37RV
  MIC: 0.7 µg/mL (≈ 1.67 µM)
[2]; H9c2, 120 h
  IC50: 10 µM

## NC[C@H]1CN(c2ccc(N3CC4(COC4)C3)c(F)c2)C(=O)O1 [OBD-057]
[1]; [3]
  MIC: 0.4 µg/mL (≈ 1.3 µM)
[2]; [4]
  IC50: 67 µM

## CC(=O)NC[C@H]1CN(c2cc(F)c(N3CC4(COC4)C3)c(F)c2)C(=O)O1 [OTB-230, (S)—N-((3-(3,5-Difluoro-4-(2-oxa-6-azaspiro[3.3]heptan-6-yl)phenyl)-2-oxo-oxazolidin-5-yl)methyl)acetamide]
[1]; [3]
  MIC: 0.2 µg/mL (≈ 0.544 µM)
[2]; [4]
  IC50: 13 µM

## CCCCS(=O)(=O)NC[C@H]1CN(c2ccc(N3CCCSCCC3)c(F)c2)C(=O)O1 [OTB-120, (R)—N-[[3-(3-Fluoro-4-(1,5-thiazocan-5-yl)phenyl)-2-oxo-oxazolidin-5-yl]methyl]butane-1-sulfonamide]
[1]; [3]
  MIC: 3.88 µg/mL (≈ 8.44 µM)
[2]; [4]
  IC50: 7.27 µM

## CCCC(=O)NC[C@H]1CN(c2cc(F)c(N3C4CCC3CSC4)c(F)c2)C(=O)O1 [OBD-029, N—(((S)-3-(4-(3-thia-8-aza-bicyclo[3.2.1]octan-8-yl)-3,5-difluorophenyl)-2-oxooxazolidin-5-yl)methyl)butyramide]
[1]; H37RV
  MIC: 0.11 µg/mL (≈ 0.259 µM)
[2]; H9c2, 120 h
  IC50: > 100 µM

## O=C(NC[C@H]1CN(c2ccc(N3CCCSCC3)c(F)c2)C(=O)O1)C1CC1 [OTB-413, (S)—N-((3-(3-Fluoro-4-(1,4-thiazepan-4-yl)phenyl)-2-oxo-oxazolidin-5-yl)methyl)cyclopropanecarboxamide]
[1]; [3]
  MIC: 0.108 µg/mL (≈ 0.274 µM)
[2]; [4]
  IC50: 9.13 µM

## CS(=O)(=O)NC[C@H]1CN(c2ccc(N3CC4(CSC4)C3)c(F)c2)C(=O)O1 [OTB-260-2A]
[1]; [3]
  MIC: 0.82 µg/mL (≈ 2.04 µM)
[2]; [4]
  IC50: > 100 µM

## O=C1O[C@@H](CO)CN1c1cc(F)c(N2CC3CCC(C2)O3)c(F)c1 [OBD-114, 3-(4-(8-oxa-3-aza-bicyclo[3.2.1]octan-3-yl)-3,5-difluorophenyl)-5-(hydroxymethyl)oxazolidin-2-one]
[1]; [3]
  MIC: 1.7 µg/mL (≈ 5 µM)
[2]; [4]
  IC50: > 100 µM

## O=C1O[C@@H](Cn2nccn2)CN1c1ccc(N2CC3(CSC3)C2)c(F)c1 [OTB-260-5A]
[1]; [3]
  MIC: 0.44 µg/mL (≈ 1.17 µM)
[2]; [4]
  IC50: > 100 µM

## O=C1O[C@@H](Cn2ccnn2)CN1c1ccc(N2CCC[S+]([O-])CC2)c(F)c1 (stereo partly drawn) [OTB-137, (5R)-5-((1H-1,2,3-Triazol-1-yl)methyl)-3-(3-fluoro-4-(1-oxido-1,4-thiazepan-4-yl)phenyl)oxazolidin-2-one]
[1]; [3]
  MIC: 0.277 µg/mL (≈ 0.704 µM)
[2]; [4]
  IC50: 7.64 µM

## CCCC(=O)NC[C@H]1CN(c2ccc(N3CCCSCC3)c(F)c2)C(=O)O1 [OBD-005, (S)—N-((3-(3-fluoro-4-(1,4-thiazepan-4-yl)phenyl)-2-oxooxazolidin-5-yl)methyl)buty ramide]
[1]; [3]
  MIC: 0.055 µg/mL (≈ 0.139 µM)
[2]; [4]
  IC50: 15.6 µM

## COC(=O)NC[C@H]1CN(c2cc(F)c(N3[C@@H]4CC[C@H]3CSC4)c(F)c2)C(=O)O1 [OTB-512, Methyl (((S)-3-(4-((1R,5S)-3-thia-8-azabicyclo[3.2.1]octan-8-yl)-3,5-difluorophenyl)-2-oxo-oxazolidin-5-yl)methyl)carbamate]
[1]; H37RV
  MIC: 0.063 µg/mL (≈ 0.152 µM)
[2]; H9c2, 120 h
  IC50: 42.5 µM

## CCCC(=O)NC[C@H]1CN(c2ccc(N3CCCSCCC3)c(F)c2)C(=O)O1 [OBD-003, (S)—N-((3-(3-fluoro-4-(1,5-thiazocan-5-yl)phenyl)-2-oxooxazolidin-5-yl)methyl)buty ramide]
[1]; [3]
  MIC: 0.33 µg/mL (≈ 0.806 µM)
[2]; [4]
  IC50: > 100 µM

## O=C1O[C@@H](Cn2cncn2)CN1c1ccc(N2CCC[S+]([O-])CC2)c(F)c1 (stereo partly drawn) [OTB-140, (5R)-5-((1H-1,2,4-Triazol-1-yl)methyl)-3-(3-fluoro-4-(1-oxido-1,4-thiazepan-4-yl)phenyl)oxazolidin-2-one]
[1]; [3]
  MIC: 3.69 µg/mL (≈ 9.39 µM)
[2]; [4]
  IC50: > 100 µM

From patent US11964949B2, “Substituted phenyloxazolidinones for antimicrobial therapy” (priority 2015, dated 2024)
